Literature values, collected in patent US6159964A, “Vitronectin receptor antagonists” (SmithKline Beecham Corporation, priority 1999, dated 2000).

System: fibrinogen receptor
Conditions: template of WO 93/08174

Q: Which “fibrinogen antagonist activity (in words)” value does the source give for `N=C(N)c1ccc(NC(=O)c2ccc3c(c2)CN(CCc2ccccc2)C(=O)C(CC(=O)O)N3)cc1` (racemic) [(R,S)-7-[[[4-(aminoiminomethyl)phenyl]amino]carbonyl]-4-(2-phenylethyl)-1,3,4,5-tetrahydro-3-oxo-2H-1,4-benzodiazepine-2-acetic acid] here?
A: potent and selective fibrinogen antagonist
